# From US6548533B2, “Ureido substituted pyrrolidines” (Aventis Pharma Limited, priority 1999, dated 2003)
row,SMILES,melting point
1,"COc1cc(CC(=O)Nc2ccc(C3CN(C(C)=O)CC3C(=O)O)cc2)ccc1NC(=O)Nc1ccccc1C (centres unmarked) [Example 1, 1-Acetyl-4-(4-{2-[3-methoxy-4-(3-o-tolyl-ureido)-phenyl]-acetylamino}-phenyl)-pyrrolidine-3-carboxylic Acid]",242 °C
2,"COc1cc(CC(=O)Nc2ccc(C3CN(C(=O)c4ccccc4)CC3C(=O)O)cc2)ccc1NC(=O)Nc1ccccc1C (centres unmarked) [Example 2, 1-Benzoyl-4-(4-{2-[3-methoxy-4-(3-o-tolyl-ureido)-phenyl]-acetylamino}-phenyl)-pyrrolidine-3-carboxylic Acid]",248 °C
3,"COc1cc(CC(=O)Nc2ccc(C3CN(C(=O)CCC(=O)O)CC3C(=O)O)cc2)ccc1NC(=O)Nc1ccccc1C (centres unmarked) [Example 3, 1-(3-Carboxy-propionyl)-4-(4-{2-[3-methoxy-4-(3-o-tolyl-ureido)-phenyl]-acetylamino}-phenyl)-pyrrolidine-3-carboxylic Acid]",184 °C

# Further lines, results first:
row,melting point,SMILES
1,155 °C (dec.),"COc1cc(CC(=O)Nc2ccc(C3C(C(=O)O)CCN3C(=O)c3ccccc3)cc2)ccc1NC(=O)Nc1ccccc1C (centres unmarked) [Example 4, 1-Benzoyl-2-(4-{2-[3-methoxy-4-(3-o-tolyl-ureido)-phenyl]-acetylamino}-phenyl)-pyrrolidine-3-carboxylic Acid]"
2,255 °C,"COc1cc(CC(=O)Nc2ccc(C3CN(Cc4ccccc4)CC3C(=O)O)cc2)ccc1NC(=O)Nc1ccccc1C (centres unmarked) [Example 5, 1-Benzyl-4-(4-{2-[3-methoxy-4-(3-o-tolyl-ureido)-phenyl]-acetylamino}-phenyl)-pyrrolidine-3-carboxylic Acid]"
